The DC50 is the concentration at which degradation of the target reaches its halfway point.

This passage reports DC50 results from patent publication US12655135B2, “Benzo seven-membered ring bifunctional compound and application thereof” (CHIA TAI TIANQING PHARMACEUTICAL GROUP CO., LTD., priority 2021, dated 2026).

The target in the experiment is T1, ERα (Homo sapiens, UniProt P03372).
T1 construct: endogenous in cells; host or cells: MCF-7
T1 sequence (P03372 1-595): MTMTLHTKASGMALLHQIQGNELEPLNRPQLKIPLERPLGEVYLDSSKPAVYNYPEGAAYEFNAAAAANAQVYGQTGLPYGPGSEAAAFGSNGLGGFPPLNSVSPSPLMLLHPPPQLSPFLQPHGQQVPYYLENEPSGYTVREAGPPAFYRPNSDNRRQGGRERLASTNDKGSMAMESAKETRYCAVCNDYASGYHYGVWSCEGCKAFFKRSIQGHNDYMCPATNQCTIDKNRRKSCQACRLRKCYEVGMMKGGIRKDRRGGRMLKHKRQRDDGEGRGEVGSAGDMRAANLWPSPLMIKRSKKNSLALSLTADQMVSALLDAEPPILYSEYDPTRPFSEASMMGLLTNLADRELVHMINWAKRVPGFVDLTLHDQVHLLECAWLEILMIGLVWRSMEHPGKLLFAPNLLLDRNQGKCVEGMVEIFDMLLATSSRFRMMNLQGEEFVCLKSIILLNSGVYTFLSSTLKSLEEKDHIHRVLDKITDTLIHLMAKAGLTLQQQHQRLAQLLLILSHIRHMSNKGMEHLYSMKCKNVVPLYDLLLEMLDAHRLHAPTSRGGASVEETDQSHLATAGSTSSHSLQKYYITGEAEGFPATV
The experiment can be described thus: MCF-7 ERα degradation experiment (Human Total ERα ELISA, 4 h incubation). It counts as cell-based. Conditions: MCF-7 cells, 4 h incubation at 37° C., ERα by ELISA; Max well 100 nM FUL, Min well 0.5% DMSO; read-out: Degradation of ERα by compounds DC50. The protocol:
Experimental Example 1: MCF-7 ERα Degradation Experiment
Compounds were tested for their ability to degrade ERα receptors under experimental conditions.
Phenol red-free MEM medium was purchased from Wisent, fetal bovine serum was purchased from Biosera, and Human Total ERα/NR3A1 ELISA kits were purchased from R&D. MCF-7 cell line was purchased from the Cell Bank of Type Culture Collection Committee of the Chinese Academy of Sciences. Nivo5 multi-marker analyzer (PerkinElmer).
• 1. MCF-7 cells were resuspended in medium (phenol red-free MEM+5% Charcoal Dextran Stripped FBS+1% PS), seeded in a 96-well clear cell culture plate, and incubated overnight in a carbon dioxide incubator; • 2. ELISA plate was coated with stripes, Human Total ERα Capture Antibody was diluted with 1×PBS, and the plate was incubated at 25° C. overnight. Day Two: • 1. Cell administration: The compounds to be tested were diluted to the 8th concentration. The concentration of the compound was 20 μM, and the compound was diluted successively to the 8th concentration of 0.256 nM at 4 μM. Two duplicate wells were set. The compound was transferred to the intermediate plate and then to the cell plate to give a final DMSO concentration of 0.5% per well, and the plate was incubated at 37° C. for 4 h; • 2. preparation of standard curve solution: 110 ng/mL of standard curve stock solution was 6-fold diluted with buffer #8 to give a solution with a concentration of 18.3 ng/mL. Then, 8-point gradient dilution was performed using buffer #3 with a final concentration of 200 pg/mL to 1.56 pg/mL; • 3. the ELISA plate was washed 3 times with a washing solution (1×PBS containing 0.05% Tween); • 4. 300 μL of blocking solution (1×PBS containing 1% BSA) was added to each well, and the plate was incubated at 25° C. for 2 h; • 5. 1×PBS was pre-cooled. After the incubation of the compound, the supernatant was removed, the plate was washed with pre-cooled 1×PBS, the cell lysate was added, and the cells were lysed on ice for 15 min; • 6. the blocking solution was removed from the ELISA plate, the plate was washed, and step 3 was repeated; • 7. after the cells were lysed, in the cell plate, the cell lysate was 6-fold diluted with 150 μL of buffer #8 per well, the mixture was pipetted and mixed well, and 100 μL of solution per well was transferred to the ELISA plate; • 8. at the same time, 100 μL of Standard per well was transferred to the ELISA plate and incubated overnight at 25° C. Day Three: • 1. The supernatant was removed, and the plate was washed 3 times with a washing solution; • 2. Human Total ERα Detection Antibody stock solution ([…]) was 36-fold diluted with buffer #1 (1×PBS containing 1% BSA), and the final concentration of Detection Antibody was 400 ng/mL. 100 μL/well of the solution was transferred to the ELISA plate, and the plate was incubated at 25° C. for 2 h; • 3. the plate was washed with buffer #1; • 4. Streptavidin-HRP A was 200-fold diluted with buffer #1 (1×PBS containing 1% BSA), 100 μL/well of the solution was transferred to the ELISA plate, and the plate was incubated at 25° C. for 20 min; • 5. the plate was washed with buffer #1; • 6. 100 μL of Substrate Solution per well (1:1 mixture of reagent A (H2O2) and reagent B (tetramethylbenzidine)) was added to the ELISA plate, and the plate was incubated at 25° C. for 20 min; • 7. […] of stop solution was added and the OD450 absorbance was read on a plate reader. Data Analysis: […]
(In general: ELISA stands for enzyme-linked immunosorbent assay.)

Turning to `O=C1CCC(N2Cc3cc(N4CCN(CCCCCOc5ccc(C6=C(c7ccccc7)CCCc7cc(O)ccc76)cc5)CC4)ccc3C2=O)C(=O)N1` (centres unmarked) [Compound 1], the DC50 amounted to 0.84 nM.

Take `O=C1CCC(N2Cc3cc(N4CCN(CC5CCN(c6ccc(C7=C(c8ccccc8)CCCc8cc(O)ccc87)cc6)CC5)CC4)ccc3C2=O)C(=O)N1` (centres unmarked) [Compound 2]: the DC50 turned out to be 2.69 nM.

As to `O=C1CCC(N2Cc3cc(N4CCN(CC5CCN(c6ccc(C7=C(c8ccc(Cl)cc8Cl)CCCc8cc(C(=O)O)ccc87)cc6)CC5)CC4)ccc3C2=O)C(=O)N1` (centres unmarked) [Compound 3], the DC50 amounted to 5.8 nM.

As to `O=C1CC[C@H](N2Cc3cc(N4CCN(CCC5CCN(c6ccc(C7=C(c8ccccc8)CCCc8cc(O)ccc87)cc6)CC5)CC4)ccc3C2=O)C(=O)N1` [Compound 4], the DC50 turned out to be 1.5 nM.

`O=C1CC[C@H](N2Cc3cc(N4CCN(CC5CCN(c6ccc(C7=C(c8ccc(Cl)cc8)CCCc8cc(O)ccc87)cc6)CC5)CC4)ccc3C2=O)C(=O)N1` [Compound 5]: the half-maximal degradation concentration (DC50) came out at 1.8 nM.

Regarding `O=C1CC[C@H](N2Cc3cc(N4CCN(CC5CCN(c6ccc(C7=C(c8ccc(F)cc8)CCCc8cc(O)ccc87)cc6)CC5)CC4)ccc3C2=O)C(=O)N1` [Compound 6], the DC50 is 1 nM.

`COc1ccc2c(c1)CCCC(c1ccccc1)=C2c1ccc(N2CCC(CN3CCN(c4ccc5c(c4)CN([C@H]4CCC(=O)NC4=O)C5=O)CC3)CC2)cc1` [Compound 7]: the DC50 was 8 nM.

For the compound `COc1ccc2c(c1)CCCC(c1ccc(F)cc1)=C2c1ccc(N2CCC(CN3CCN(c4ccc5c(c4)CN([C@H]4CCC(=O)NC4=O)C5=O)CC3)CC2)cc1` [Compound 8], the 50% degradation concentration (DC50) turned out to be 8.3 nM.

For the compound `O=C1CC[C@H](N2Cc3cc(N4CCN(CC5CCN(c6ccc(C7=C(c8ccc(O)cc8)CCCc8cc(O)ccc87)cc6)CC5)CC4)ccc3C2=O)C(=O)N1` [Compound 9], the DC50 was 0.4 nM.

Turning to `COc1ccc2c(c1)OCCC(c1ccccc1)=C2c1ccc(N2CCC(CN3CCN(c4ccc5c(c4)CN([C@H]4CCC(=O)NC4=O)C5=O)CC3)CC2)cc1` [Compound 10], the DC50 came to 5.7 nM.

On to `Cc1ccc(C2=C(c3ccc(N4CCC(CN5CCN(c6ccc7c(c6)CN([C@H]6CCC(=O)NC6=O)C7=O)CC5)CC4)cc3)c3ccc(O)cc3CCC2)cc1` [Compound 11], for which the DC50 amounted to 1 nM.

As for `O=C1CC[C@H](N2Cc3cc(N4CCN(CC5CCN(c6ccc(C7=C(c8ccccc8)CCCc8cc(C(=O)O)ccc87)cc6)CC5)CC4)ccc3C2=O)C(=O)N1` [Compound 12], the half-maximal degradation concentration (DC50) is 4.73 nM.

In the case of `O=C1CC[C@H](N2Cc3cc(N4CCN(CCC5CCN(c6ccc(C7=C(c8ccccc8)CCCc8cc(C(=O)O)ccc87)cc6)CC5)CC4)ccc3C2=O)C(=O)N1` [Compound 13], the half-maximal degradation concentration (DC50) was 4.47 nM.

Regarding `O=C1CC[C@H](N2Cc3cc(N4CCN(CC5CCN(c6ccc(C7=C(c8ccccc8)CCCc8cc(O)ccc87)cc6)CC5)CC4)ccc3C2=O)C(=O)N1` [Compound 14], the 50% degradation concentration (DC50) was 1.1 nM.

`O=C1CC[C@H](N2Cc3cc(N4CCN(CC5CCN(c6ccc(C7=C(c8ccc(C(F)(F)F)nc8)CCCc8cc(O)ccc87)cc6)CC5)CC4)ccc3C2=O)C(=O)N1` [Compound 15]: the DC50 was 1.7 nM.

For the compound `Cc1ccc(C2=C(c3ccc(N4CCC(CN5CCN(c6ccc7c(c6)CN([C@H]6CCC(=O)NC6=O)C7=O)CC5)CC4)cc3)c3ccc(O)cc3CCC2)cn1` [Compound 16], the half-maximal degradation concentration (DC50) was found to be 7.7 nM.

With `O=C1CC[C@H](N2Cc3cc(N4CCN(CC5CCN(c6ccc(C7=C(c8ccc(C9CC9)nc8)CCCc8cc(O)ccc87)cc6)CC5)CC4)ccc3C2=O)C(=O)N1` [Compound 17], the half-maximal degradation concentration (DC50) came out at 9.4 nM.

As for `Cc1nn(C)cc1C1=C(c2ccc(N3CCC(CN4CCN(c5ccc6c(c5)CN([C@H]5CCC(=O)NC5=O)C6=O)CC4)CC3)cc2)c2ccc(O)cc2CCC1` [Compound 18], the DC50 came to 4.6 nM.

Turning to `O=C1CC[C@H](N2Cc3cc(N4CCN(CC5CCN(c6ccc(C7=C(c8ccc(F)nc8)CCCc8cc(O)ccc87)cc6)CC5)CC4)ccc3C2=O)C(=O)N1` [Compound 19], the 50% degradation concentration (DC50) is 2.1 nM.

On to `O=C1CC[C@H](N2Cc3cc(N4CCN(CC5CCN(c6ccc(C7=C(c8ccncc8)CCCc8cc(O)ccc87)cc6)CC5)CC4)ccc3C2=O)C(=O)N1` [Compound 20], for which the DC50 is 0.9 nM.

As to `O=C1CC[C@H](N2Cc3cc(N4CCN(CC5CCN(c6ccc(C7=C(c8cccnc8)CCCc8cc(O)ccc87)cc6)CC5)CC4)ccc3C2=O)C(=O)N1` [Compound 21], the 50% degradation concentration (DC50) came to 1.9 nM.

For the compound `Cc1ccc(C2=C(c3ccc(N4CCC(CN5CCN(c6ccc7c(c6)CN([C@H]6CCC(=O)NC6=O)C7=O)CC5)CC4)cc3)c3ccc(O)cc3CCC2)c(C)n1` [Compound 22], the DC50 is 2.4 nM.

As to `CC(C)(O)c1ccc(C2=C(c3ccc(N4CCC(CN5CCN(c6ccc7c(c6)CN([C@H]6CCC(=O)NC6=O)C7=O)CC5)CC4)cc3)c3ccc(O)cc3CCC2)cn1` [Compound 23], the DC50 stood at 1.4 nM.

Consider `O=C1CC[C@H](N2Cc3cc(N4CCN(CC5CCN(c6ccc(C7=C(c8ccc(OC(F)F)cc8)CCCc8cc(O)ccc87)cc6)CC5)CC4)ccc3C2=O)C(=O)N1` [Compound 24], for which the DC50 was 0.7 nM.

For the compound `O=C1CC[C@H](N2Cc3cc(N4CCN(CC5CCN(c6ccc(C7=C(c8ccc(OC(F)(F)F)cc8)CCCc8cc(O)ccc87)cc6)CC5)CC4)ccc3C2=O)C(=O)N1` [Compound 25], the DC50 is 5.7 nM.

Turning to `O=C1CC[C@H](N2Cc3cc(N4CCN(CC5CCN(c6ccc(C7=C(c8ccc(OC9CC9)cc8)CCCc8cc(O)ccc87)cc6)CC5)CC4)ccc3C2=O)C(=O)N1` [Compound 26], the 50% degradation concentration (DC50) came to 1.7 nM.
